Measured values published in patent US9315544B2, “Method of treating eosinophilia by administering an immunomodulating peptide” (National Tsing Hua University, priority 2012, dated 2016).

What was measured:
[1] = tested on: bronchial epithelial cell; details: cited from earlier work
[2] = tested on: goblet cell hyperplasia; experiment: Lung histopathology (PAS), goblet cell hyperplasia score; assay type: in vivo, BALB/c mouse; details: eIN+mIT+eIN group (CMP days 1 to 22)
Source text: (§1) FIG. 4 illustrates experimental design. All groups except control group were immunized with mite crude extract allergen on days 1 and 8, then mite crude extract allergen intratracheally on day 15 in all mite treated group, BALB/c mouse were divided into six groups (1) control group (PBS), (2) mites delivered intratracheally (mIT, mite on day 15) alone, (3) CMP intranasal (eIN, CMP on days 1 to 22) alone, (4) preventive-treatment group (eIN+mIT, CMP on days 1 to 14, mite on day 15) (5) therapy-treatment group (mIT+eIN, mite on day 15, CMP on days 15 to 22), and (6) preventive- and therapeutic-treatment group (eIN+mIT+eIN, CMP on days 1 to 22, mite on day 15).
(§2) FIG. 6A-6B illustrates inhibitory effect of CMP on influx of inflammatory cells. […] (A) Scores for peri-bronchiolar, alveolar inflammation and (B) PAS were determined based on the histological sections. Each result was expressed as the mean±S.D., n=4. ***, P<0.001. […]
(§3) The formalin-fixed lung sections stained with hematoxylin and eosin (H&E) were assigned a unit value for alveolar, peri-bronchiolar, and total inflammation by computing the means of three independent scores for three randomly selected fields. […] For evaluating the hyperplasia goblet cells, medium-sized airways were assessed in sections stained with periodic acid-Schiff (PAS) stain. Two reviewers independently and randomly scored 10 fields of each slide. […]

[3] = tested on: mite-induced airway inflammation; experiment: Lung histopathology (H&E), peri-bronchiolar and alveolar inflammation scores; assay type: in vivo, BALB/c mouse
Source text: as §1, §2, §3

Sequence: NYRWRCKNQN (CMP)
- cytotoxic effect on bronchial epithelial cell [1]: no cytotoxic effect
- score of goblet cell hyperplasia compared with mIT group [2]: lower score
- effect on peribronchiolar, alveolar inflammation and goblet cells hyperplasia ([3]; eIN+mIT+eIN compared with eIN+mIT and mIT+eIN group): more potently suppressive effect
- peri-bronchiolar and alveolar scores compared with mIT group ([3]; eIN+mIT+eIN group (CMP days 1 to 22)): significantly lower
